Measured values from US11596623B2, “Methods for treating virus infection or proliferation” (HOWARD UNIVERSITY, priority 2018, dated 2023).
Entries after “also recorded” stand apart in the source; their conditions may differ.

Experiments:
Assay type in all cases: cell-based
EV-D68 = EV-D68 VP1 western assay in HEp-2 cells; details: 48 h; for EV-D68 proliferation / major structural protein VP1: HEp-2 cells, western
Procedure: HEp-2 cells were grown to 80-90% confluency in Dulbecco's Modified Eagle's medium (DMEM) supplemented with 10% fetal calf serum (FCS) and 1% penicillin-streptomycin (PS) and fungicide. The virus and the indicated concentration of compounds were added and incubated for 48 h. After washing with PBS, the cell lysates were collected and were run in a Biorad XT-Criterion gel and transferred to a PVDF membrane. The membrane was blotted with an antibody directed against the EVD68 major structural protein VP1 purchased from Genetex (Irvine, Calif.). An anti-mouse IgG-HRP secondary antibody and Biorad's Western ECL substrate-Clarity was used to label the bands and the image was obtained in a Biorad Gel doc system. […] The tubulin antibody was used as the loading control.
HEp-2 cells were grown to 80-90% confluency in Dulbecco's Modified Eagle's medium (DMEM) supplemented with 10% fetal calf serum (PCS) and 1% penicillin-streptomycin (PS) and 1% fungicide. The EV-D68 virus and the indicated concentration of compounds were added and incubated for 48 h. After washing with PBS, the cell lysates were collected and were run in a Biorad Stain free TGX gel and were transferred to a PVDF membrane. The membrane was blotted with an antibody directed against the EV-D68 major structural protein VP1 purchased from Genetex (Irvine, Calif.). An antimouse IgG-HRP secondary antibody and Biorad's Western ECL substrate-Clarity was used to label the bands and the image was obtained in a Biorad Gel doc system. […] The non-specific band high above the VP1 band indicate that all virus treated lanes were loaded with equal amount of lysates. The identity of the EV-D68 VP1 protein is confirmed by the lack of the 33 kD band in the no virus lane.
HEp-2 cells were grown to 80-90% confluency in Dulbecco's Modified Eagle's medium (DMEM) supplemented with 10% fetal calf serum FCS and 1% penicillin-streptomycin (PS) and fungicide. The representative virus (EV-D68) and the indicated concentration of compounds were added and incubated for 48 h. […]

HSV-1 = assay: Plaque formation unit (pfu) assay
Procedure: The viral plaque assay was performed as previously described [Tang Q, Li L, Ishov A M, Revol V, Epstein A L, Maul G G. Determination of minimum herpes simplex virus type 1 components necessary to localize transcriptionally active DNA to ND10. J Virol. 2003; 77:5821-28.] with slight modifications. The HSV-1 strain 17 was diluted serially in a volume of 1 mL. Then 300 ul of the virus was added onto confluent HEp-2 cell monolayers in 12-well plates; each dilution had 3 wells. After adsorption for 2 h, the medium was removed and the cells were washed twice with serum-free DMEM and overlaid with phenol-free DMEM containing 5% FCS, 0.5% low-melting point agarose (GIBCO), and 1% penicillin-streptomycin. The cells were incubated at 37° C. for 48 hours. Neutral red was added on the agarose to stain the live cells. The plaques were counted and reported as pfu per mL. Mean pfu was determined after averaging the number of pfu from different dilutions. Student's t-tests were used to statistically analyze differences between the groups; a p-value lower than 0.005 was used as the threshold for a significant difference.
To assess the efficacy of SD-29 on the HSV-1 proliferation, a plaque assay was performed. We wanted to quantitatively assess whether SD-29 could inhibit viral replication. Because HSV-1 was able to enter cultured HEp-2 cells, we evaluated whether this entry led to productive virus replication.
In Table 1, confluent monolayers of HEp-2 cells were infected with serially diluted HSV-1 virus and were fixed and Giemsa stained at 0, 6, 12, and 24 hr post infection. The numbers of plaques were visualized. The number of plaques formed post infection decreased in the presence of SD-29 in a time-dependent manner.

HSV-1 ICP0 = assay: Real-time RT-PCR of HSV-1 ICP0 transcript in HEp-2 cells; details: 12 and 24 hpi, versus DMSO
Text: The total transcript levels were quantified using actin expression as an internal control. The cDNA obtained immediately after the virus and drug transfection(s) was set as a baseline value. The normalized expression values were transformed to the log 10 value. The data plot represents mean t standard error calculated from three replicates.
Following instructions of the manufacturers, total RNA was isolated using Tri Reagent® (Ambion, Inc., Austin, Tex.). To quantitatively examine the mRNA level of HSV-1 ICP0 from the infected cells, real-time RT-PCR was undertaken using the QuantiTect SYBR Green RT-PCR kit (QIAGEN, Valencia, Calif.). […] Fluorescence (captured at 80° C.) was determined to be absent from the signal generated by primer dimers. Data were collected and recorded by the BIORAD CFX Manager software. The relative quantity of the ICP0 transcripts at the indicated time points was normalized to the relative quantity of the reference gene actin at the same time points and then the log10 copy number of the normalized RNA transcripts were calculated and presented on a bar chart. A melting temperature curve analysis was obtained by measuring (after the amplification cycles) the fluorescence during a period of warming from 60° C. to 95° C. […]

SMILES | EV-D68 proliferation / major structural protein VP1 (EV-D68) | EV-D68 proliferation / major structural protein VP1 (EV-D68; listed as SD 29-14) | efficacy in inhibiting EV-D68 compared with SD29 and SD29-12 (EV-D68; VP1 western) | Plaque formation unit (HSV-1; 0 hpi) [PFU/mL] | Plaque formation unit (HSV-1; 6 hpi) [PFU/mL] | Plaque formation unit (HSV-1; 12 hpi) | Plaque formation unit (HSV-1; 24 hpi) | production of infectious virions (HSV-1; infected HEp-2 cells, versus DMSO) | ICP0 mRNA level (HSV-1 ICP0)
Nn1c(S)nnc1-c1cc(Cl)cc(Cl)c1 [SD29-14] | inhibits EV-D68 proliferation in a dose dependent way; also recorded: effectively inhibited the viral major structural protein VP1 | inhibits proliferation of a representative virus (EV-D68), in a dose dependent way | better efficacy |  |  |  |  |  | 
Nn1c(S)nnc1-c1ccc(F)cc1 [SD-29] |  |  |  | 0 ± 0 | 0 ± 0 | 1 ± 0.08 × 10^2 PFU/mL | 1.8 ± 0.04 × 10^5 PFU/mL | failed to produce significant infectious virions | essentially showed the same level of ICP0 mRNA
